Results: ChEMBL document CHEMBL1155778, “The many roles for fluorine in medicinal chemistry” (J Med Chem, 2008)
Values belong to the compound of their own block, whether it stands above or below them.

What was measured:
[1] = Dissociation constant, pKa of the compound; format: physicochemical
[2] = Plasma clearance in rat at 2 mg/kg, po; format: ADME, organism-based; parameters: dose 2 mg/kg, route oral
[3] = Half life in rat plasma at 2 mg/kg, po; format: ADME, organism-based; parameters: dose 2 mg/kg, route oral
[4] = Half life in human plasma; format: ADME, organism-based
[5] = target: Cannabinoid receptor 1 (Homo sapiens, UniProt P21554); test: Displacement of [3H]CP-55940 from human CB1 receptor expressed in CHO cells; format: cell-based
Sequence of Cannabinoid receptor 1 (P21554 whole entry): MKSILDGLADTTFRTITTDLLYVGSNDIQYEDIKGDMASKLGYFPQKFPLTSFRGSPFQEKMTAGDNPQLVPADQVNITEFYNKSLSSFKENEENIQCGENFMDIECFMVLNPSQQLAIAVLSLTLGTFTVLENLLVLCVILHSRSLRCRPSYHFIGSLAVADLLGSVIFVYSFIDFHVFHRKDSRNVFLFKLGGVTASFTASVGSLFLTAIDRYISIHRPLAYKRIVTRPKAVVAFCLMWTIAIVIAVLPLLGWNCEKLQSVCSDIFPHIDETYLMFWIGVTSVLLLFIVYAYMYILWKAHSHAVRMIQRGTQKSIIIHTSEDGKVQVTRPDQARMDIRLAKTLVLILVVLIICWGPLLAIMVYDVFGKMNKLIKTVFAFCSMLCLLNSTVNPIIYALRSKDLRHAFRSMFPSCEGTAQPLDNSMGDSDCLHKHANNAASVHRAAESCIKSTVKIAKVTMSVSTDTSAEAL

[6] = Cmax in rat at 2 mg/kg, po; format: ADME, organism-based; parameters: dose 2 mg/kg, route oral; details: in vivo
[7] = Half life in rat plasma at 10 mg/kg, po; format: ADME, organism-based; parameters: dose 10 mg/kg, route oral
[8] = target: T1, Prostaglandin D2 receptor (Homo sapiens, UniProt Q13258)
T1 sequence (Q13258 whole entry): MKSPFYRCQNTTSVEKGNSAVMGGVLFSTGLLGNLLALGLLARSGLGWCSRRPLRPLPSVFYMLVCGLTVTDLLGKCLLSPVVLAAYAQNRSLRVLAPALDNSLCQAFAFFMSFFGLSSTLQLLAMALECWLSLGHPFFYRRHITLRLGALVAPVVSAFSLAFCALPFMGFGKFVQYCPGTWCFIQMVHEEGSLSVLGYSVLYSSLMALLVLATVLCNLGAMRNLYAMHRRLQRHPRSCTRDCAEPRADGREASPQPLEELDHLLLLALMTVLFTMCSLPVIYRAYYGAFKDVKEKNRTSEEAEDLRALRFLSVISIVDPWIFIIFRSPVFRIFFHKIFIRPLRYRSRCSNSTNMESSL

[9] = Metabolic stability in rat hepatocytes after 2 hrs
[10] = Cmax in rat at 10 mg/kg, po; format: ADME, organism-based; parameters: dose 10 mg/kg, route oral; details: in vivo
[11] = Drug level in duct cannulated rat bile at 5 mg/kg, iv; format: ADME, organism-based; parameters: dose 5 mg/kg, route intravenous; details: in vivo, read-out: Drug uptake
[12] = Plasma clearance in rat at 10 mg/kg, po; format: ADME, organism-based; parameters: dose 10 mg/kg, route oral
[13] = tested on: Liver microsomes; test: Metabolic stability in human liver microsomes assessed as covalent protein binding per mg of protein; format: ADME, Microsome
[14] = Oral bioavailability in rat; format: ADME, organism-based; details: in vivo
[15] = target: Prothrombin (Homo sapiens, UniProt P00734); test: Inhibition of human thrombin
[16] = tested on: Meriones unguiculatus; test: Inhibition of GR-73632-induced foot-tapping in iv dosed gerbils after 24 hrs; format: functional; details: read-out: ID50 (the source's name)
[17] = tested on: Cavia porcellus; test: Inhibition of resiniferatoxin-induced systemic vascular leakage in po dosed guinea pig […] model after 24 hrs; format: functional
[18] = target: T2, Cathepsin K (Homo sapiens, UniProt P43235); test: Inhibition of cathepsin K
T2 sequence (P43235 whole entry): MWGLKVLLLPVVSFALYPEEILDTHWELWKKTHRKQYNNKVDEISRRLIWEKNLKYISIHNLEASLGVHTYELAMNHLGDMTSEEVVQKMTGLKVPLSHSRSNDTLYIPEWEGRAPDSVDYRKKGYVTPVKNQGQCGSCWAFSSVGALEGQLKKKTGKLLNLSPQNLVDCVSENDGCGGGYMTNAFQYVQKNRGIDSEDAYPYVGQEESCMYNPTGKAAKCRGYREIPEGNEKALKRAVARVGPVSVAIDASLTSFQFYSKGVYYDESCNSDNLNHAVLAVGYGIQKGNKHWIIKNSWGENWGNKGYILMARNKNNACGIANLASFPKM

[19] = target: Substance-P receptor (Homo sapiens, UniProt P25103); test: Inhibition of NK1 receptor
Sequence of Substance-P receptor (P25103 whole entry): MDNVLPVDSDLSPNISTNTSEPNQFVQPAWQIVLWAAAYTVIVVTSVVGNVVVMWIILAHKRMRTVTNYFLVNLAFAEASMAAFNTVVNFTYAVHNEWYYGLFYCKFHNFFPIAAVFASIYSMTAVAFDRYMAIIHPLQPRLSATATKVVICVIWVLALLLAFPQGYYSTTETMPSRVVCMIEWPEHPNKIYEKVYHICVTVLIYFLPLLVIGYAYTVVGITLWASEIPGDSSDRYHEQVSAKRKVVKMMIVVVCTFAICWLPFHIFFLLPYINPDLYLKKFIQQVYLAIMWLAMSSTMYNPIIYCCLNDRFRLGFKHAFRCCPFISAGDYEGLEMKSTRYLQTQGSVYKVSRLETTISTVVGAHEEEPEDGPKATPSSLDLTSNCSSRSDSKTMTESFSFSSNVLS

pKa [1]: 9.29
SMILES: Oc1cccc(F)c1

pKa [1]: 9.89
SMILES: Oc1ccc(F)cc1

pKa [1]: 4.14
SMILES: O=C(O)c1ccc(F)cc1

CL/F [2]: 43 mL/min/kg
half-life [3]: 96 min
SMILES: N[C@@H](CC(=O)N1CCn2c(nnc2C(F)(F)F)C1)Cc1cc(F)ccc1F

pKa [1]: 3.68
SMILES: Fc1cccc2ncccc12

CL/F [2]: 40 mL/min/kg
half-life [3]: 60 min
SMILES: N[C@@H](CC(=O)N1CCn2cnnc2C1)Cc1cc(F)c(F)cc1F

CL/F [2]: 58 mL/min/kg
half-life [3]: 138 min
SMILES: N[C@@H](CC(=O)N1CCn2c(nnc2C(F)(F)C(F)(F)F)C1)Cc1cc(F)c(F)cc1F

SMILES: O=C(O)C(F)F
pKa [1]: 1.24

half-life [4]: 672 min
SMILES: Cc1ccc(-c2cc(C(F)(F)F)nn2-c2ccc(S(N)(=O)=O)cc2)cc1 [CELECOXIB]

IC50 [5]: 1.47 nM
CL/F [2]: 35 mL/min/kg
Cmax [6]: 300 nM
half-life [3]: 144 min
SMILES: C[C@H](NC(=O)C(C)(C)Oc1cc(F)cc(F)c1)[C@@H](Cc1ccc(Cl)cc1)c1ccccc1

half-life [7]: 240 min
Ki [8]: 1.1 nM
remaining at 2 h [9]: 35%
Cmax [10]: 21 µM
concentration [11]: 81 µM
CL/F [12]: 1.9 mL/min/kg
Activity [13]: 46 pmol/h
bioavailability [14]: 52%
SMILES: CC(=O)c1cc(F)cc2c3c(n(Cc4ccc(Cl)cc4)c12)C(CC(=O)O)CC3 (configuration not stated)

SMILES: N=C(N)c1ccc([C@H]2C3C(=O)N(Cc4ccccc4F)C(=O)C3C3CCCN32)cc1 (some centres not stated)
Ki [15]: 500 nM

pKa [1]: 3.27
SMILES: O=C(O)c1ccccc1F

pKa [1]: 4.65
SMILES: Nc1ccc(F)cc1

CL/F [2]: 51 mL/min/kg
half-life [3]: 108 min
SMILES: N[C@@H](CC(=O)N1CCn2c(nnc2C(F)(F)F)C1)Cc1ccc(F)c(F)c1

pKa [1]: 3.2
SMILES: Nc1ccccc1F

CL/F [2]: 25 mL/min/kg
Cmax [6]: 440 nM
half-life [3]: 132 min
bioavailability [14]: 29%
SMILES: C[C@H](NC(=O)C(C)(C)Oc1ccccn1)[C@@H](Cc1ccc(Cl)cc1)c1ccccc1

SMILES: N=C(N)c1ccc([C@H]2C3C(=O)N(Cc4cccc(F)c4)C(=O)C3C3CCCN32)cc1 (some centres not stated)
Ki [15]: 360 nM

CL/F [2]: 70 mL/min/kg
half-life [3]: 102 min
SMILES: CCc1nnc2n1CCN(C(=O)C[C@H](N)Cc1cc(F)c(F)cc1F)C2

SMILES: C[C@@H](O[C@H]1OCCN(Cc2n[nH]c(=O)[nH]2)[C@H]1c1ccc(F)cc1)c1cc(C(F)(F)F)cc(C(F)(F)F)c1 [APREPITANT]
ED50 [16]: 0.33 mg/kg
ID90 [17]: 1.8 mg/kg

pKa [1]: 1.7
SMILES: FC(F)(F)c1nnn[nH]1

SMILES: Nc1cccc(C(F)(F)F)c1
pKa [1]: 3.49

pKa [1]: 4.04
SMILES: Fc1ccc2cccnc2c1

pKa [1]: 3.1
SMILES: Fc1cccc2cccnc12

SMILES: Cc1nnn[nH]1
pKa [1]: 4.9

IC50 [18]: 0.015 nM
SMILES: CC(C)C[C@H](NC(=O)c1ccc(-c2ccc(N3CCNCC3)cc2)cc1)C(=O)NCC#N

SMILES: O=c1[nH]nc(CN2CCO[C@H](OCc3cc(C(F)(F)F)cc(C(F)(F)F)c3)[C@@H]2c2ccccc2)[nH]1
ED50 [16]: 2.88 mg/kg
ID90 [17]: 5.4 mg/kg

CL/F [2]: 60 mL/min/kg
half-life [3]: 102 min
SMILES: N[C@@H](CC(=O)N1CCn2c(nnc2C(F)(F)F)C1)Cc1cc(F)c(F)cc1F [SITAGLIPTIN]

pKa [1]: 8.9
SMILES: Oc1cccc(C(F)(F)F)c1

pKa [1]: 8.73
SMILES: Oc1ccccc1F

pKa [1]: 2.36
SMILES: Fc1cnc2ccccc2c1

SMILES: Nc1ccc(C(F)(F)F)cc1
pKa [1]: 2.57

SMILES: Fc1ccccn1
pKa [1]: -0.44

pKa [1]: 3.87
SMILES: O=C(O)c1cccc(F)c1

pKa [1]: 3.79
SMILES: O=C(O)c1cccc(C(F)(F)F)c1

SMILES: C[C@@H](O[C@H]1OCCN(Cc2n[nH]c(=O)[nH]2)[C@H]1c1ccccc1)c1cc(C(F)(F)F)cc(C(F)(F)F)c1
ED50 [16]: 1.11 mg/kg
ID90 [17]: 2.3 mg/kg
IC50 [19]: 0.09 nM

CL/F [2]: 33 mL/min/kg
Cmax [6]: 490 nM
half-life [3]: 162 min
SMILES: C[C@H](NC(=O)C(C)(C)Oc1ccc(C(F)(F)F)cn1)[C@@H](Cc1ccc(Cl)cc1)c1cccc(C#N)c1 [TARANABANT]

IC50 [18]: 5 nM
SMILES: N#CCNC(=O)C1(N[C@@H](c2ccc(-c3ccc(N4CCNCC4)cc3)cc2)C(F)(F)F)CCCCC1

IC50 [5]: 0.54 nM
CL/F [2]: 35 mL/min/kg
Cmax [6]: 1200 nM
half-life [3]: 132 min
bioavailability [14]: 100%
SMILES: C[C@H](NC(=O)C(C)(C)Oc1ccc(C(F)(F)F)cn1)[C@@H](Cc1ccc(Cl)cc1)c1ccccc1

pKa [1]: 2.97
SMILES: Fc1cccnc1

IC50 [18]: 0.4 nM
SMILES: N#CCNC(=O)C1(NC(=O)c2ccc(-c3ccc(N4CCNCC4)cc3)cc2)CCCCC1

pKa [1]: 4
SMILES: Fc1ccc2ncccc2c1

SMILES: OCC(F)(F)F [TRIFLUOROETHANOL]
pKa [1]: 12.4

SMILES: CS(=O)(=O)c1cc(F)cc2c3c(n(Cc4ccc(Cl)cc4)c12)C(CC(=O)O)CC3 (stereo not drawn) [DIASTEREOMER 2]
half-life [7]: 420 min
remaining at 2 h [9]: 32%
Cmax [10]: 39 µM
concentration [11]: 103 µM
CL/F [12]: 2.4 mL/min/kg
bioavailability [14]: 79%

SMILES: O=c1[nH]nc(CN2CCO[C@H](OCc3cc(C(F)(F)F)cc(C(F)(F)F)c3)[C@@H]2c2ccc(F)cc2)[nH]1
ED50 [16]: 1.24 mg/kg
ID90 [17]: 2.3 mg/kg

half-life [7]: 84 min
remaining at 2 h [9]: 93%
concentration [11]: 1100 µM
CL/F [12]: 14 mL/min/kg
Activity [13]: 18 pmol/h
bioavailability [14]: 100%
SMILES: CC(=O)c1cc(S(C)(=O)=O)cc2c3c(n(Cc4ccc(Cl)cc4)c12)[C@@H](CC(=O)O)CC3

CL/F [2]: 33 mL/min/kg
Cmax [6]: 180 nM
half-life [3]: 168 min
bioavailability [14]: 9%
SMILES: C[C@H](NC(=O)C(C)(C)Oc1ccccc1)[C@@H](Cc1ccc(Cl)cc1)c1ccccc1

IC50 [18]: ≤ 0.005 nM
SMILES: CC(C)C[C@H](N[C@@H](c1ccc(-c2ccc(N3CCNCC3)cc2)cc1)C(F)(F)F)C(=O)NCC#N

pKa [1]: 3.06
SMILES: O=C(O)CC(F)(F)F
